Reference: patent US12173018B2, “Penicillin-binding protein inhibitors” (priority 2018, dated 2024)
≈ marks a conversion by molar mass, not a printed value. Where a name gives a salt, the structure may show the parent alone. Read-outs that look alike come from different tables or passages of the source.

What was measured:
E. coli ATCC 25922 = test: Broth microdilution MIC, E. coli ATCC 25922; format: cell-based; details: Escherichia coli
Method in brief: (§1)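 Broth microdilution MICs followed CLSI methods in cation-supplemented Mueller-Hinton broth, with 2-fold serial compound dilutions. Log-phase cultures grown 3–5 h were added to a starting inoculum of 5×10^5 CFU/mL and incubated 16–20 h at 37 °C. The MIC was read visually as the lowest concentration with no growth.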

[1] = system: E. coli DH5α empty pLBII vector control strain; test: microbe, parasite or virus in culture; format: cell-based, Escherichia coli; details: for MIC: Escherichia coli, read-out: Microbiological Activity (MIC in mg/L), E. coli DH5α/pLBII
Method: Briefly, cryo-preserved bacterial cultures of challenge strains are streaked for isolation on appropriate agar medium, in this case Mueller Hinton II agar. Following incubation to allow growth of the colonies, plates are sealed with parafilm and stored refrigerated for up to two weeks. For preparation of assay inoculum and to ensure low variability, at least 5 colonies are picked from the agar plates with an inoculating loop and aseptically transferred to a culture tube containing 3 mL of Mueller-Hinton Broth (supplemented with divalent cations to required levels based on Manufacturers' certification). The broth culture is grown for 3-5 hours at 37° C. with shaking at 200 rpm. Meanwhile, 2-fold serial dilutions of test compounds are conducted in a 96 well plate with a final volume of 75 μL per well at 2-fold the final desired concentration. After the dilution plates are set up the growing cultures are then diluted in a cuvette containing MH II broth and the optical density is measured at 600 nm. The Inoculum is diluted such that 75 μL of this culture in Mueller-Hinton Broth results in a starting bacterial concentration of 5×10^5 CFU/mL when added to the dilution plates. The plates are incubated for 16-20 hours at 37° C. The MIC values are read visually as the lowest concentration well with no bacterial growth.
To determine if test compounds were affected by CTX-M15, the most abundant extended spectrum […] in clinical settings worldwide, the inhibition of the growth of an engineered strain of Escherichia coli harboring CTX-M15 was tested. This strain was constructed by cloning the gene encoding CTX-M15 into the NdeI and BamHI restriction endonuclease sites of plasmid pLBII, placing the gene(s) under the control of the Lac promoter. The constructed expression plasmid for CTX-M15 was used to transform competent E. coli DH5α cells to make the engineered strain, including an empty pLBII vector control strain. The classic cell based broth microdilution MIC assay was employed as described above with the addition of control antibiotics, known to be degraded by β-lactamases (Ceftazidime, piperacillin and piperacillin+tazobactam).

[2] = system: engineered strain of Escherichia coli harboring CTX-M15; test: microbe, parasite or virus in culture; format: cell-based; details: for MIC: Escherichia coli, read-out: Microbiological Activity (MIC in mg/L), E. coli DH5α/pLBII-CTX-M15, engineered strain producing CTX-M15
E. coli AG100A = test: microbe, parasite or virus in culture; format: cell-based; details: Escherichia coli, read-out: MIC E. coli AG100A
Method in brief: as §1

K. pneumoniae UMM = test: microbe, parasite or virus in culture; format: cell-based; details: Klebsiella pneumoniae; K. pneumoniae UMM producing SHV-5 and KPC-2; read-out: MIC K. pneumoniae UMM
Method in brief: as §1

E. coli 901C = test: microbe, parasite or virus in culture; format: cell-based; details: Escherichia coli; hyper-permeable E. coli 901C, broth microdilution; read-out: MIC E. coli 901C
Method in brief: as §1

E. coli AG100 = test: Broth microdilution MIC, E. coli AG100 (wild-type parent); format: cell-based; details: Escherichia coli; wild-type parent E. coli AG100, broth microdilution; read-out: MIC E. coli AG100
Method in brief: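 Broth microdilution in cation-supplemented Mueller-Hinton broth, 2-fold serial compound dilutions, inoculum 5×10^5 CFU/mL from 3-5 h log culture.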

E. coli PBP1b = E. coli PBP1b (Escherichia coli (strain K12), UniProt P02919); test: Radioligand competition binding assay with 14C-labeled boronic acid probe, PBP1b
E. coli PBP3 = E. coli PBP3 (Escherichia coli (strain K12), UniProt P0AD68); test: E. coli PBP3 Bocillin-FL fluorescence polarization competition binding assay
Method in brief: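 Purified E. coli PBP (1.5 μM final) competed with inhibitor (0-1000 μM) for Bocillin-FL (0.1 μM final) in 50 mM Hepes pH 8.0, 300 mM NaCl, 5% glycerol. Fluorescence polarization (ex 490/em 520 nm) was read continuously for 60 min after Bocillin-FL addition. EC50 was the concentration that reduced Bocillin-FL binding by 50%.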

[3] = ATCC25922, read-out: MIC E. coli 25922

Chain of E. coli PBP3 (P0AD68 whole entry): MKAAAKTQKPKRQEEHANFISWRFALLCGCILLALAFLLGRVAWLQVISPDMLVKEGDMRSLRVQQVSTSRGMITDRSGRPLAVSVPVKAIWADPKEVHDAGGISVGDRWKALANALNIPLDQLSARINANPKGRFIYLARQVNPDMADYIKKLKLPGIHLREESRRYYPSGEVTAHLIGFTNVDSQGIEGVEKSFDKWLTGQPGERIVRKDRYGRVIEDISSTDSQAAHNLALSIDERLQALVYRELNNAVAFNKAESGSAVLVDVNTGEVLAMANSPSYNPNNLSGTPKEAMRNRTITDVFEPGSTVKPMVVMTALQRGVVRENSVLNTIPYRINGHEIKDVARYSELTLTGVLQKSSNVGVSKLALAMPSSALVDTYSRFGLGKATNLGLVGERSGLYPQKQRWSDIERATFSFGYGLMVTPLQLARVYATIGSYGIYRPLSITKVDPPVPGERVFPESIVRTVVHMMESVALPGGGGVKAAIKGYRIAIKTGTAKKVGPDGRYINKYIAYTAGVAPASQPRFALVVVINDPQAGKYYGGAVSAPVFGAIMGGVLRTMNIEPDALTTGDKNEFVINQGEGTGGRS
Chain of E. coli PBP1b (P02919 whole entry): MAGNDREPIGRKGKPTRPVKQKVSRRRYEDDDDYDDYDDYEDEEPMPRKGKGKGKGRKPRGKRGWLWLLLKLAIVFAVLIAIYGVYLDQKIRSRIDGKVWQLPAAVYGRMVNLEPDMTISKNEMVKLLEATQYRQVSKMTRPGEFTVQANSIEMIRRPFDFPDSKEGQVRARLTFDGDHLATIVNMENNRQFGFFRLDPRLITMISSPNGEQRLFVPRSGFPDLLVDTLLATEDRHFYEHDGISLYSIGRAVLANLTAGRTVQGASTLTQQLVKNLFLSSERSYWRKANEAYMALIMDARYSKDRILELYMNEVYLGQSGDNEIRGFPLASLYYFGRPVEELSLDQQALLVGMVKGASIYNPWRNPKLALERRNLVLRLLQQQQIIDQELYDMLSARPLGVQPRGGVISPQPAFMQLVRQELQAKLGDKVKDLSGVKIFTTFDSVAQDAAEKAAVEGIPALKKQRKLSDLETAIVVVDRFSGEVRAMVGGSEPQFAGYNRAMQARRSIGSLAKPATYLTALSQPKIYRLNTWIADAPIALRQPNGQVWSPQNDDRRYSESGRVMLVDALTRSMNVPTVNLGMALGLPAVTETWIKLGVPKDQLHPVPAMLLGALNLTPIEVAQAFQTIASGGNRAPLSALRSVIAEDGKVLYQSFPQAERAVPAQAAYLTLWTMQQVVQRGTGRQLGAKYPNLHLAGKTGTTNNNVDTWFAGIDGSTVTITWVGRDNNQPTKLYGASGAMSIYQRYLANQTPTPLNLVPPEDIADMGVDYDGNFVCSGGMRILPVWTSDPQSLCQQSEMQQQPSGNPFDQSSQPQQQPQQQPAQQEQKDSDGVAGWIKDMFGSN

Compound | MIC [1] [mg/L] | MIC [2] [mg/L] | EC50 (E. coli PBP1b) [µM] | EC50 (E. coli PBP3) [µM] | also measured
CCN1CCN(C(=O)N2C[C@@H](O)C[C@@H]2C(=O)N[C@H]2Cc3cccc(C(=O)O)c3OB2O)C(=O)C1=O [Example 9, (R)-3-((2R,4S)-1-(4-ethyl-2,3-dioxopiperazine-1-carbonyl)-4-hydroxypyrrolidine-2-carboxamido)-2-hydroxy-3,4-dihydro-2H-benzo[e][1,2]oxaborinine-8-carboxylic acid] | > 512 | > 512 |  |  | MIC (E. coli ATCC 25922; [3]): > 128 µg/mL; MIC (E. coli AG100A): > 128 µg/mL; MIC (K. pneumoniae UMM): > 128 µg/mL; MIC (E. coli 901C): > 128 µg/mL; MIC (E. coli AG100): > 128 µg/mL
CCN1CCN(C(=O)NC(C(=O)N[C@H]2Cc3cccc(C(=O)O)c3OB2O)c2nsc(N)n2)C(=O)C1=O (stereo partly drawn) [Example 10, (3R)-3-(2-(5-amino-1,2,4-thiadiazol-3-yl)-2-(4-ethyl-2,3-dioxopiperazine-1-carboxamido)acetamido)-2-hydroxy-3,4-dihydro-2H-benzo[e][1,2]oxaborinine-8-carboxylic acid] | 8 to 16 (≈ 15.1 to 30.1 µM) | 8 to 16 (≈ 15.1 to 30.1 µM) |  |  | MIC (E. coli ATCC 25922; [3]): 8 to 16 µg/mL; MIC (E. coli AG100A): 2 to 4 µg/mL; MIC (K. pneumoniae UMM): 8 to 16 µg/mL; MIC (E. coli 901C): 0.5 to 1 µg/mL; MIC (E. coli AG100): 32 to 64 µg/mL
CCN1CCN(C(=O)N[C@H](CN)C(=O)N[C@H]2Cc3cccc(C(=O)O)c3OB2O)C(=O)C1=O [Example 11, (R)-3-((R)-3-amino-2-(4-ethyl-2,3-dioxopiperazine-1-carboxamido)propanamido)-2-hydroxy-3,4-dihydro-2H-benzo[e][1,2]oxaborinine-8-carboxylic acid, trifluoroacetic acid salt] | 128 to 256 | 128 to 256 | < 10 |  | 
Nc1nc(C(NC(=O)N2CCN(CCF)C(=O)C2=O)C(=O)N[C@H]2Cc3cccc(C(=O)O)c3OB2O)c(Cl)s1 (stereo partly drawn) [Example 13, (3R)-3-(2-(2-amino-5-chlorothiazol-4-yl)-2-(4-(2-fluoroethyl)-2,3-dioxopiperazine-1-carboxamido)acetamido)-2-hydroxy-3,4-dihydro-2H-benzo[e][1,2]oxaborinine-8-carboxylic acid] | 8 to 16 (≈ 13.7 to 27.5 µM) | 8 to 16 (≈ 13.7 to 27.5 µM) |  | 30 to 500 | MIC (E. coli ATCC 25922; ATCC25922, E. coli ATCC 25922, broth microdilution, read-out: MIC E. coli 25922): 32 to 64 µg/mL; MIC (E. coli AG100A): 2 to 4 µg/mL; MIC (K. pneumoniae UMM): 32 to 64 µg/mL; MIC (E. coli 901C): < 0.25 µg/mL; MIC (E. coli AG100): 32 to 64 µg/mL
CCN1CCN(C(=O)NC(C(=O)N[C@H]2Cc3cccc(C(=O)O)c3OB2O)c2csc(N)n2)CC1=O (stereo partly drawn) [Example 18, (3R)-3-(2-(2-aminothiazol-4-yl)-2-(4-ethyl-3-oxopiperazine-1-carboxamido)acetamido)-2-hydroxy-3,4-dihydro-2H-benzo[e][1,2]oxaborinine-8-carboxylic acid] | 128 to 256 (≈ 248 to 496 µM) | 128 to 256 (≈ 248 to 496 µM) |  | 30 to 500 | 
CCN1CCN(C(=O)NC(C(=O)N[C@H]2Cc3cccc(C(=O)O)c3OB2O)c2ccc(OC)c(OC)c2)C(=O)C1=O (stereo partly drawn) [Example 21, (3R)-3-(2-(3,4-dimethoxyphenyl)-2-(4-ethyl-2,3-dioxopiperazine-1-carboxamido)acetamido)-2-hydroxy-3,4-dihydro-2H-benzo[e][1,2]oxaborinine-8-carboxylic acid] | 128 to 256 (≈ 225 to 450 µM) | 128 to 256 (≈ 225 to 450 µM) |  | 30 to 500 | 
CCN1CCN(C(=O)N[C@H](CC(=O)O)C(=O)N[C@H]2Cc3cccc(C(=O)O)c3OB2O)C(=O)C1=O [Example 23, (R)-3-((R)-3-carboxy-2-(4-ethyl-2,3-dioxopiperazine-1-carboxamido)propanamido)-2-hydroxy-3,4-dihydro-2H-benzo[e][1,2]oxaborinine-8-carboxylic acid] | > 512 | > 512 | > 100 | > 500 | 
CCN1CCN(C(=O)N[C@@H](CC(=O)O)C(=O)N[C@H]2Cc3cccc(C(=O)O)c3OB2O)C(=O)C1=O [Example 24, (R)-3-((S)-3-carboxy-2-(4-ethyl-2,3-dioxopiperazine-1-carboxamido)propanamido)-2-hydroxy-3,4-dihydro-2H-benzo[e][1,2]oxaborinine-8-carboxylic acid] | > 512 | > 512 | > 100 | > 500 | 
Nc1nc(C(NC(=O)c2cccc(O)c2O)C(=O)N[C@H]2Cc3cccc(C(=O)O)c3OB2O)cs1 (stereo partly drawn) [Example 25, (3R)-3-(2-(2-aminothiazol-4-yl)-2-(2,3-dihydroxybenzamido)acetamido)-2-hydroxy-3,4-dihydro-2H-benzo[e][1,2]oxaborinine-8-carboxylic acid] | > 512 | > 512 | < 10 |  | 
CCN1CCN(C(=O)NC(C(=O)N[C@H]2Cc3cccc(C(=O)O)c3OB2O)c2cc(OC)c(O)c(OC)c2)C(=O)C1=O (stereo partly drawn) [Example 29, (3R)-3-(2-(4-ethyl-2,3-dioxopiperazine-1-carboxamido)-2-(4-hydroxy-3,5-dimethoxyphenyl)acetamido)-2-hydroxy-3,4-dihydro-2H-benzo[e][1,2]oxaborinine-8-carboxylic acid] | 128 to 256 (≈ 219 to 438 µM) | 128 to 256 (≈ 219 to 438 µM) | > 100 |  | EC50 (E. coli PBP3; fluorescence polarization competition binding with Bocillin-FL, read-out: E. coli K12 PBP3 Potency): > 500 µM
CCN1CCN(C(=O)NC(C(=O)N[C@H]2Cc3cccc(C(=O)O)c3OB2O)c2cc(OC)c(OC)c(OC)c2)C(=O)C1=O (stereo partly drawn) [Example 30, (3R)-3-(2-(4-ethyl-2,3-dioxopiperazine-1-carboxamido)-2-(3,4,5-trimethoxyphenyl)acetamido)-2-hydroxy-3,4-dihydro-2H-benzo[e][1,2]oxaborinine-8-carboxylic acid] | > 512 | > 512 |  |  | 
CCN1CCN(C(=O)NC(C(=O)N[C@H]2Cc3cccc(C(=O)O)c3OB2O)c2cc(O)c(O)c(O)c2)C(=O)C1=O (stereo partly drawn) [Example 31, (3R)-3-(2-(4-ethyl-2,3-dioxopiperazine-1-carboxamido)-2-(3,4,5-trihydroxyphenyl)acetamido)-2-hydroxy-3,4-dihydro-2H-benzo[e][1,2]oxaborinine-8-carboxylic acid] | > 512 | > 512 | 10 to 100 | 30 to 500 | 
CCN1CCN(C(=O)C[C@@H](N)C(=O)N[C@H]2Cc3cccc(C(=O)O)c3OB2O)C(=O)C1=O [Example 32, (R)-3-((R)-2-amino-4-(4-ethyl-2,3-dioxopiperazin-1-yl)-4-oxobutanamido)-2-hydroxy-3,4-dihydro-2H-benzo[e][1,2]oxaborinine-8-carboxylic acid] | > 512 | > 512 |  |  | 
CCN1CCN(C(=O)N[C@H](C(=O)N[C@H]2Cc3cccc(C(=O)O)c3OB2O)c2ccc(O)c(O)c2)C(=O)C1=O [Example 38, (R)-3-((S)-2-(3,4-dihydroxyphenyl)-2-(4-ethyl-2,3-dioxopiperazine-1-carboxamido)acetamido)-2-hydroxy-3,4-dihydro-2H-benzo[e][1,2]oxaborinine-8-carboxylic acid] | 2 to 4 (≈ 3.7 to 7.4 µM) | 2 to 4 (≈ 3.7 to 7.4 µM) |  | 30 to 500 | 
CCN1CCN(C(=O)N[C@@H](C(=O)N[C@@H]2C(=O)N3[C@@H]2SC(C)(C)[C@@H]3C(=O)O)c2ccccc2)C(=O)C1=O [piperacillin, reference compound] |  |  |  |  | Microbiological Activity (MIC in mg/L), E. coli DH5α/pLBII [1]: F (F represents an MIC<1 μg/mL); MIC in CTX-M15 producer compared with parent strain with empty pLBII plasmid ([2]; engineered E. coli DH5α with CTX-M15 vs empty vector control): weaker MICs in the CTX-M15 producer; Microbiological Activity (MIC in mg/L), E. coli DH5α/pLBII-CTX-M15 ([2]; engineered strain producing CTX-M15): B (B represents an MIC of 128 to 256 μg/mL)
